Test results taken from patent US6562853B2, “2,5-dioxo-3-(2-propynyl)imidazolidin-1-ylmethyl 2,2-dimethyl-3-(alenyl) cyclopropane carboxylate compounds and pesticidal methods and compositions utilizing the same” (Sumitomo Chemical Company, Limited, priority 2001, dated 2003).

Columns and labels:
[1] = test system: adult female common mosquitoes; experiment: Knockdown of common mosquitoes by oily formulation sprayed into 70 cm cubic chamber (Test Example 3); assay type: in vivo, common mosquito (Culex pipiens pallens); settings: 0.00625% oily formulation, 0.7 ml sprayed into 70 cm cubic chamber; 10 adult female common mosquitoes; counted over 10 minutes
Source text: Three (3) 0.00625% oily formulations were produced with the following pesticidal compounds: […]
In the compound encompassed by formula (A), the weight ratio of trans isomers thereof to the cis isomers thereof is 8:2. The 0.00625% oily formulations were produced by dissolving, respectively, 0.00625 parts of the above pesticidal compounds in 10 parts of dichloromethane and by mixing each of the resulting mixture with 89.99375 parts of deodorized kerosene.
Ten (10) adult female common mosquitoes were released in each of the cubic chambers having a side length of 70 cm. Seven-tenths milliliters (0.7 ml) of the 0.00625% oily formulations were then sprayed, respectively, into each of the chambers from the side windows of the chambers, utilizing spray guns set to a pressure of 8.8×10^4 Pa. The numbers of knockdowned common mosquitoes were counted periodically over 10 minutes. The times utilized to knockdown half of the tested common mosquitoes (KT50) were determined from the number of knockdowned common mosquitoes.

Adult houseflies [2] = experiment: Knockdown rate of houseflies in plastic cup after direct spray of oily formulation (Test Example 2); assay type: in vivo, housefly (Musca domestica); settings: 0.1% oily formulation (table), 0.5 ml sprayed from about 30 cm above cup; 10 adult houseflies; counted 10 seconds thereafter
Protocol: A 0.1% oily formulation was produced by dissolving 0.1 part of the present invention compound 1 in 10 parts of dichloromethane and by mixing the resulting mixture with 89.9 parts of deodorized kerosene.
Ten (10) adult houseflies (5 of each male and female) were placed in a 650 ml plastic cup. The opening of the plastic cup was covered with a nylon mesh to confine the houseflies to the plastic cup. The plastic cup was placed on top of a metal screen placed in a metal chamber having the dimensions 46 cm×46 cm×70 cm. Five-tenths milliliters (0.5 ml) of the […] oily formulation was then sprayed from about 30 cm above the top area of the plastic cup, utilizing a spray gun set to a pressure of 8.8×10^4 Pa. The number of knockdowned houseflies were counted 10 seconds thereafter. The knockdown rate was determined from the number of knockdowned houseflies achieved. The knockdown rate was 95%.

Adult houseflies [3] = experiment: Knockdown of houseflies by oily formulation sprayed into 70 cm cubic chamber (Test Example 1); assay type: in vivo, housefly (Musca domestica); settings: 0.025% oily formulation, 0.7 ml sprayed into 70 cm cubic chamber; 5 male and 5 female adult houseflies; counted over 10 minutes
Protocol: A 0.025% oily formulation was produced by dissolving 0.025 parts of the present invention compound 1 in 10 parts of dichloromethane and by mixing the resulting mixture with 89.975 parts of deodorized kerosene.
Adult houseflies (5 of each male and female) were released in a cubic chamber having a side length of 70 cm. Seven-tenths milliliters (0.7 ml) of the 0.025% oily formulation was then sprayed into the chamber from a side window of the chamber, utilizing a spray gun set to a pressure of 8.8×10^4 Pa. The number of knockdowned houseflies was counted periodically over 10 minutes. The time utilized to knockdown half of the tested houseflies (KT50) was determined from the number of knockdowned houseflies. The KT50 was 2.3 minutes.

C#CCN1CC(=O)N(COC(=O)[C@@H]2[C@H](/C=C\C)C2(C)C)C1=O [Present invention compound 3, 2,5-dioxo-3-(2-propynyl)imidazolidin-1-ylmethyl (1R)-cis-2,2-dimethyl-3-((Z)1-propenyl)cyclopropanecarboxylate]
KT50 (time utilized to knockdown half of the tested common mosquitoes) [1]: 1.4 min

C#CCN1CC(=O)N(COC(=O)[C@@H]2[C@@H](/C=C\C)C2(C)C)C1=O [Present invention compound 1, 2,5-dioxo-3-(2-propynyl)imidazolidin-1-ylmethyl (1R)-trans-2,2-dimethyl-3-((Z)1-propenyl)cyclopropanecarboxylate]
Knockdown rate (Adult houseflies [2]): 95%
KT50 (time utilized to knockdown half of the tested common mosquitoes) [1]: 0.99 min
KT50 (time utilized to knockdown half of the tested houseflies) (Adult houseflies [3]): 2.3 min

C#CCN1CC(=O)N(COC(=O)C2C(C=C(C)C)C2(C)C)C1=O (single isomer, unassigned) [Compound c, reference compound]
KT50 (time utilized to knockdown half of the tested common mosquitoes) [1]: 2.9 min
